# Measured values as given in US12275719B2, “Small molecule inhibitors of galectin-3” (BRISTOL-MYERS SQUIBB COMPANY, priority 2019, dated 2025).
# Biological target: His-tagged recombinant human Gal-3 (hGal-3) (Homo sapiens, UniProt P17931)
# Assay: Gal-3 HTRF assay (hGal-3 / B-ASF binding inhibition)
# Settings: Examples 26 to 29 and 66 to 68; HTRF, 15 nM hGal-3, 15 nM B-ASF
# Description: ASSAY BUFFER Composition: 25 mM HEPES, 100 mM NaCl, 0.005% Tween 20, 0.05% BSA prepared in sterile water (all reagents from Sigma).
# Positive Control: 100% DMSO (1 μL)+His-tagged hGal-3 (20 μL)+β-ASF (20 μL)+Anti-His Terbium Antibody (5 μL)+Strep d2 Antibody (5 μL).
# Negative Control: 100% DMSO (1 μL)+His-tagged hGal-3 (20 μL)+Anti His Terbium Antibody (5 μL)+Strep d2 Aantibody (5 μL).
# PROTOCOL: The Gal-3 assays were performed in 384 white Opti plates in three replicates at room temperature with gentle shaking at 250-300 rpm From the original stocks, […] working stock concentrations of His-tagged recombinant human Gal-3 (hGal-3) and that of B-ASF were prepared. From the working stock, 20 μL of hGal-3 (15 nM) and 20 μL B-ASF (15 nM) were added to the plates. In Negative Control, only hGal-3 was added. A concentration range of 50× working stocks were prepared for the compounds in 100% DMSO. Aliquots of 1 μL of the compounds were added to the wells and pre-incubated with 20 μL hGal-3 per well for 30 minutes Then 20 μL B-ASF were added and incubated for another 1 hour. To detect the signal, 5 μL (final conc. of 1.0 nM) terbium labelled Anti-His antibody was added and incubated for 30 min followed by adding 5 μL (final conc. of 20 nM) Streptavidin d2 and incubation for another 1 hour. The assay signal was detected using HTRF screen protocol (Excitation wavelength=340 nm, emission wavelength=615 nm/665 nm) on Envision 2104 Multilabel Reader. Data analysed using Toolset and Curve Master. Results are reported in the experimental section (IC50 in μM).
# Chain of His-tagged recombinant human Gal-3 (hGal-3) (P17931 whole entry): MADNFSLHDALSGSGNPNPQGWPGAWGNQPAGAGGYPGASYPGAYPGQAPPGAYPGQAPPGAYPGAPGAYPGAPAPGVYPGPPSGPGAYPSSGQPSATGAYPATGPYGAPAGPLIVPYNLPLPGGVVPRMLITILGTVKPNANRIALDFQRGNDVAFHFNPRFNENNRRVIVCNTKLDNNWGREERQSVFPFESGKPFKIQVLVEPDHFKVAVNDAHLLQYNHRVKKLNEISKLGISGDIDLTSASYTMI
row,Structure (SMILES),IC50
1,"OC[C@H]1O[C@@H](c2nncn2-c2ccc3ncsc3c2)[C@H](OCC(F)F)[C@@H](n2cc(-c3cc(F)c(Br)c(F)c3)nn2)[C@H]1O [Example 68, (2R,3R,4S,5R,6S)-6-(4-(benzo[d]thiazol-6-yl)-4H-1,2,4-triazol-3-yl)-4-(4-(4-bromo-3,5-difluorophenyl)-1H-1,2,3-triazol-1-yl)-5-(2,2-difluoroethoxy)-2-(hydroxymethyl)tetrahydro-2H-pyran-3-ol]",25 nM
2,"Cn1nc([C@@H]2O[C@H](CO)[C@H](O)[C@H](n3cc(-c4ccc(Br)c(F)c4F)nn3)[C@H]2O)n(-c2cc(Cl)ccc2C(F)(F)F)c1=S [Example 66, 5-((2S,3R,4R,5R,6R)-4-(4-(4-bromo-2,3-difluorophenyl)-1H-1,2,3-triazol-1-yl)-3,5-dihydroxy-6-(hydroxymethyl)tetrahydro-2H-pyran-2-yl)-4-(5-chloro-2-(trifluoromethyl)phenyl)-2-methyl-2,4-dihydro-3H-1,2,4-triazole-3-thione]",750 nM
3,"OC[C@H]1O[C@@H](c2nncn2-c2cc(Cl)ccc2C(F)(F)F)[C@H](O)[C@@H](n2cc(-c3ccc(Br)c(F)c3F)nn2)[C@H]1O [Example 26, (2S,3R,4R,5R,6R)-4-(4-(4-bromo-2,3-difluorophenyl)-1H-1,2,3-triazol-1-yl)-2-(4-(5-chloro-2-(trifluoromethyl)phenyl)-4H-1,2,4-triazol-3-yl)-6-(hydroxymethyl)tetrahydro-2H-pyran-3,5-diol]",10 nM
4,"OC[C@H]1O[C@@H](c2n[nH]c(=S)n2-c2cc(Cl)ccc2C(F)(F)F)[C@H](O)[C@@H](n2cc(-c3ccc(Br)c(F)c3F)nn2)[C@H]1O (single isomer, unassigned) [Example 27]",76 nM
5,"Cn1nc([C@@H]2O[C@H](CO)[C@H](O)[C@H](n3cc(-c4ccc(Br)c(F)c4F)nn3)[C@H]2O)n(-c2cc(Cl)ccc2C(F)(F)F)c1=S [Example 67, 5-((2S,3R,4R,5R,6R)-4-(4-(4-bromo-2,3-difluorophenyl)-1H-1,2,3-triazol-1-yl)-3,5-dihydroxy-6-(hydroxymethyl)tetrahydro-2H-pyran-2-yl)-4-(5-chloro-2-(trifluoromethyl)phenyl)-2-methyl-2,4-dihydro-3H-1,2,4-triazole-3-thione]",9.3 nM
6,"OC[C@H]1O[C@@H](c2n[nH]c(=S)n2-c2cc(Cl)ccc2C(F)(F)F)[C@H](O)[C@@H](n2cc(-c3ccc(Br)c(F)c3F)nn2)[C@H]1O (single isomer, unassigned) [Example 28]",6.9 nM

# Same assay, conditions: table of Examples 5 to 25
row,Structure (SMILES),IC50
1,Cc1nc([C@@H]2O[C@H](CO)[C@H](O)[C@H](n3cc(-c4ccc(Cl)c(C)c4F)nn3)[C@H]2O)n(-c2cc(Cl)ccc2C(F)(F)F)n1 [Example 17],18 nM
2,Cc1nc([C@@H]2O[C@H](CO)[C@H](O)[C@H](n3cc(-c4ccc(C#N)c(F)c4F)nn3)[C@H]2O)n(-c2cc(Cl)ccc2C(F)(F)F)n1 [Example 13],19 nM
3,COc1cc(-c2cn([C@H]3[C@@H](O)[C@@H](CO)O[C@@H](c4nc(C)nn4-c4cc(Cl)ccc4C(F)(F)F)[C@@H]3O)nn2)cc(F)c1Br [Example 19],23 nM
4,COc1c(Cl)ccc(-c2cn([C@H]3[C@@H](O)[C@@H](CO)O[C@@H](c4nc(C)nn4-c4cc(Cl)ccc4C(F)(F)F)[C@@H]3O)nn2)c1F [Example 14],137 nM
5,CO[C@@H]1[C@@H](n2cc(-c3ccc(Cl)c(F)c3F)nn2)[C@@H](O)[C@@H](CO)O[C@H]1c1nc(C)nn1-c1ccc2ncsc2c1 [Example 21],10 nM
6,Cc1nc([C@@H]2O[C@H](CO)[C@H](O)[C@H](n3cc(-c4ccc(Br)cc4F)nn3)[C@H]2O)n(-c2cc(Cl)ccc2C(F)(F)F)n1 [Example 12],56 nM
7,Cc1nc([C@@H]2O[C@H](CO)[C@H](O)[C@H](n3cc(-c4ccc(Cl)c(F)c4F)nn3)[C@H]2O)n(-c2cc(Cl)cnc2C(F)(F)F)n1 [Example 22],55 nM
8,Cc1nc([C@@H]2O[C@H](CO)[C@H](O)[C@H](n3cc(-c4ccc(Br)c(F)c4C)nn3)[C@H]2O)n(-c2cc(Cl)ccc2C(F)(F)F)n1 [Example 16],74 nM
9,Cc1nc([C@@H]2O[C@H](CO)[C@H](O)[C@H](n3cc(-c4ccc(Br)c(Cl)c4F)nn3)[C@H]2O)n(-c2cc(Cl)ccc2C(F)(F)F)n1 [Example 15],96 nM
10,Cc1nc([C@@H]2O[C@H](CO)[C@H](O)[C@H](n3cc(-c4ccc(Cl)c(F)c4Cl)nn3)[C@H]2O)n(-c2cc(Cl)ccc2C(F)(F)F)n1 [Example 11],14 nM

# Same assay, conditions: table of Examples 30 to 65
row,Structure (SMILES),IC50
1,OC[C@H]1O[C@@H](c2nncn2-c2cc(Cl)ccc2C(F)(F)F)[C@H](O)[C@@H](n2cc(-c3cc(F)c(Cl)c(Cl)c3)nn2)[C@H]1O [Example 34],20 nM
2,CO[C@@H]1[C@@H](n2cc(-c3cc(F)c(Cl)c(Cl)c3)nn2)[C@@H](O)[C@@H](CO)O[C@H]1c1nncn1-c1cc(Cl)ccc1C(F)(F)F [Example 36],35 nM
3,CO[C@@H]1[C@@H](n2cc(-c3c(F)c(F)c(Br)c(F)c3F)nn2)[C@@H](O)[C@@H](CO)O[C@H]1c1nncn1-c1cc(Cl)ccc1OC(F)(F)F [Example 55],11 nM
4,OC[C@H]1O[C@@H](c2nncn2-c2cc(Cl)ccc2C(F)(F)F)[C@H](OCC(F)(F)F)[C@@H](n2cc(-c3ccc(Br)c(F)c3F)nn2)[C@H]1O [Example 58],14 nM
5,OC[C@H]1O[C@@H](c2nncn2-c2cc(Cl)ccc2C(F)(F)F)[C@H](OCC(F)F)[C@@H](n2cc(-c3ccc(Br)c(F)c3)nn2)[C@H]1O [Example 62],40 nM
6,OC[C@H]1O[C@@H](c2nncn2-c2cc(Cl)ccc2C(F)(F)F)[C@H](O)[C@@H](n2cc(-c3ccc(Cl)c(F)c3F)nn2)[C@H]1O [Example 52],9.7 nM
7,OC[C@H]1O[C@@H](c2nncn2-c2cc(Cl)ccc2C(F)(F)F)[C@H](OCC(F)(F)C(F)F)[C@@H](n2cc(-c3ccc(Br)c(F)c3F)nn2)[C@H]1O [Example 65],18 nM
8,OC[C@H]1O[C@@H](c2nncn2-c2cc(Cl)ccc2C(F)(F)F)[C@H](O)[C@@H](n2cc(-c3c(F)c(F)c(Br)c(F)c3F)nn2)[C@H]1O [Example 37],5.7 nM
9,OC[C@H]1O[C@@H](c2nncn2-c2cc(Cl)ccc2C(F)(F)F)[C@H](OCC(F)(F)F)[C@@H](n2cc(-c3ccc(Cl)c(F)c3F)nn2)[C@H]1O [Example 60],14 nM
10,OC[C@H]1O[C@@H](c2nncn2-c2cc(Cl)ccc2C(F)(F)F)[C@H](OCC(F)(F)F)[C@@H](n2cc(-c3ccc(Br)c(F)c3)nn2)[C@H]1O [Example 63],78 nM
11,CO[C@@H]1[C@@H](n2cc(-c3ccc(Br)c(F)c3)nn2)[C@@H](O)[C@@H](CO)O[C@H]1c1ncnn1-c1cc(Cl)ccc1C(F)(F)F [Example 30],22 nM
12,OC[C@H]1O[C@@H](c2nncn2-c2cc(Cl)ccc2OC(F)(F)F)[C@H](OCC(F)(F)C(F)F)[C@@H](n2cc(-c3ccc(Br)c(F)c3F)nn2)[C@H]1O [Example 61],49 nM
13,CO[C@@H]1[C@@H](n2cc(-c3ccc(Cl)c(F)c3F)nn2)[C@@H](O)[C@@H](CO)O[C@H]1c1nncn1-c1cc(Cl)ccc1OC(F)(F)F [Example 56],11 nM
14,OC[C@H]1O[C@@H](c2nncn2-c2cc(Cl)ccc2OC(F)(F)F)[C@H](OCC(F)F)[C@@H](n2cc(-c3ccc(Br)c(F)c3F)nn2)[C@H]1O [Example 57],21 nM

# Same assay, conditions: table of Examples 69 to 75
row,Structure (SMILES),IC50
1,Cc1nc2ccc(-n3cnnc3[C@@H]3O[C@H](CO)[C@H](O)[C@H](n4cc(-c5cc(F)c(Cl)c(Cl)c5)nn4)[C@H]3O)cc2s1 [Example 74],35 nM
2,Cc1nc2ccc(-n3cnnc3[C@@H]3O[C@H](CO)[C@H](O)[C@H](n4cc(-c5ccc(Br)c(F)c5F)nn4)[C@H]3OCC(F)F)cc2s1 [Example 71],20 nM
3,Cc1nc2ccc(-n3cnnc3[C@@H]3O[C@H](CO)[C@H](O)[C@H](n4cc(-c5cc(F)c(Cl)c(F)c5)nn4)[C@H]3OCC(=O)O)cc2s1 [Example 72],16 nM
4,Cc1nc2ccc(-n3cnnc3[C@@H]3O[C@H](CO)[C@H](O)[C@H](n4cc(-c5cc(F)c(Cl)c(Cl)c5)nn4)[C@H]3OCC(=O)O)cc2s1 [Example 75],18 nM

# Same assay, conditions: text of Examples 1 to 4; HTRF, 15 nM hGal-3, 15 nM B-ASF
row,Structure (SMILES),IC50
1,"Cc1nc([C@@H]2O[C@H](CO)[C@H](O)[C@H](n3cc(-c4ccc(Br)c(F)c4F)nn3)[C@H]2O)n(-c2ccc3ncsc3c2)n1 [Example 1, (2S,3R,4R,5R,6R)-2-(1-(Benzo[d]thiazol-6-yl)-3-methyl-1H-1,2,4-triazol-5-yl)-4-(4-(4-bromo-2,3-difluorophenyl)-1H-1,2,3-triazol-1-yl)-6-(hydroxymethyl)tetrahydro-2H-pyran-3,5-diol]",7 nM
2,"COc1cc(-c2cn([C@H]3[C@@H](O)[C@@H](CO)O[C@@H](c4nc(C)nn4-c4cc(Cl)ccc4C(F)(F)F)[C@@H]3O)nn2)cc(F)c1Cl [Example 3, (2S,3R,4R,5R,6R)-2-(1-(5-Chloro-2-(trifluoromethyl)phenyl)-3-methyl-1H-1,2,4-triazol-5-yl)-4-(4-(4-chloro-3-fluoro-5-methoxyphenyl)-1H-1,2,3-triazol-1-yl)-6-(hydroxymethyl)tetrahydro-2H-pyran-3,5-diol]",14 nM
